Results published in the supplement of paper PMC10307832.

Legend:
Assay in all cases: relative viability (nuclei count vs DMSO), 5 days (fraction); higher = more cells survive
Sunitinib + Dasatinib = compound: CCN(CC)CCNC(=O)c1c(C)[nH]c(/C=C2\C(=O)Nc3ccc(F)cc32)c1C [Sunitinib] + Cc1nc(Nc2ncc(C(=O)Nc3c(C)cccc3Cl)s2)cc(N2CCN(CCO)CC2)n1 [Dasatinib] (partner 0.075 µM)
In short: (§1)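 Relative viability divides the nuclei count in treated wells by that in vehicle wells. Lung cancer cell lines were seeded in 1536-well plates, dosed by pin tool the next day, and fixed and stained after 5 days in one step with final 0.05% Triton X-100, 1% formaldehyde and 1 ug/ml Hoechst. Dosing was a single drug or a fixed anchor-drug dose plus five library-drug doses (not always all listed) in √10 steps, and values are medians of duplicate plates imaged at 4×.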

Sunitinib + Pemetrexed = compound: CCN(CC)CCNC(=O)c1c(C)[nH]c(/C=C2\C(=O)Nc3ccc(F)cc32)c1C [Sunitinib] + Nc1nc2[nH]cc(CCc3ccc(C(=O)N[C@@H](CCC(=O)O)C(=O)O)cc3)c2c(=O)[nH]1 [Pemetrexed] (partner 0.2 µM)
In short: as §1

Sunitinib + Crizotinib = compound: CCN(CC)CCNC(=O)c1c(C)[nH]c(/C=C2\C(=O)Nc3ccc(F)cc32)c1C [Sunitinib] + C[C@@H](Oc1cc(-c2cnn(C3CCNCC3)c2)cnc1N)c1c(Cl)ccc(F)c1Cl [Crizotinib] (partner 1 µM)
In short: as §1

Sunitinib + Lapatinib = compound: CCN(CC)CCNC(=O)c1c(C)[nH]c(/C=C2\C(=O)Nc3ccc(F)cc32)c1C [Sunitinib] + CS(=O)(=O)CCNCc1ccc(-c2ccc3ncnc(Nc4ccc(OCc5cccc(F)c5)c(Cl)c4)c3c2)o1 [Lapatinib] (partner 2 µM)
In short: as §1

With NCI-H650 the relative viability (Sunitinib + Dasatinib; first compound 0.02 µM) was 0.491, the relative viability (Sunitinib + Dasatinib; first compound 0.06325 µM) was 0.523 and the relative viability (Sunitinib + Dasatinib; first compound 0.2 µM) was 0.41. It also gave a relative viability (Sunitinib + Dasatinib; first compound 0.6325 µM) of 0.533, a relative viability (Sunitinib + Dasatinib; first compound 2 µM) of 0.476 and a relative viability (Sunitinib + Pemetrexed; first compound 0.02 µM) of 0.877. For the same cell line, the relative viability (Sunitinib + Pemetrexed; first compound 0.06325 µM) was 0.958, the relative viability (Sunitinib + Pemetrexed; first compound 0.2 µM) was 0.914 and the relative viability (Sunitinib + Pemetrexed; first compound 0.6325 µM) was 1.05. The relative viability (Sunitinib + Pemetrexed; first compound 2 µM) was 1.01, the relative viability (Sunitinib + Crizotinib; first compound 0.02 µM) was 0.687 and the relative viability (Sunitinib + Crizotinib; first compound 0.06325 µM) was 0.656. The relative viability (Sunitinib + Crizotinib; first compound 0.2 µM) was 0.738, the relative viability (Sunitinib + Crizotinib; first compound 0.6325 µM) was 0.717 and the relative viability (Sunitinib + Crizotinib; first compound 2 µM) was 0.78. It also gave a relative viability (Sunitinib + Lapatinib; first compound 0.02 µM) of 1.09, a relative viability (Sunitinib + Lapatinib; first compound 0.06325 µM) of 1.33 and a relative viability (Sunitinib + Lapatinib; first compound 0.2 µM) of 0.807. It also gave a relative viability (Sunitinib + Lapatinib; first compound 0.6325 µM) of 0.925 and a relative viability (Sunitinib + Lapatinib; first compound 2 µM) of 0.964.

Cell Line NCI-H1915 has a relative viability (Sunitinib + Dasatinib; first compound 0.02 µM) of 0.302, a relative viability (Sunitinib + Dasatinib; first compound 0.06325 µM) of 0.346 and a relative viability (Sunitinib + Dasatinib; first compound 0.2 µM) of 0.322. It also gave a relative viability (Sunitinib + Dasatinib; first compound 0.6325 µM) of 0.34, a relative viability (Sunitinib + Dasatinib; first compound 2 µM) of 0.296 and a relative viability (Sunitinib + Pemetrexed; first compound 0.02 µM) of 0.428. It also gave a relative viability (Sunitinib + Pemetrexed; first compound 0.06325 µM) of 0.486, a relative viability (Sunitinib + Pemetrexed; first compound 0.2 µM) of 0.499 and a relative viability (Sunitinib + Pemetrexed; first compound 0.6325 µM) of 0.527. For the same cell line, the relative viability (Sunitinib + Pemetrexed; first compound 2 µM) was 0.484, the relative viability (Sunitinib + Crizotinib; first compound 0.06325 µM) was 0.911 and the relative viability (Sunitinib + Crizotinib; first compound 0.2 µM) was 0.998. The relative viability (Sunitinib + Crizotinib; first compound 0.6325 µM) was 0.911, the relative viability (Sunitinib + Crizotinib; first compound 2 µM) was 0.966 and the relative viability (Sunitinib + Lapatinib; first compound 0.02 µM) was 0.958. The relative viability (Sunitinib + Lapatinib; first compound 0.06325 µM) was 1.03, the relative viability (Sunitinib + Lapatinib; first compound 0.2 µM) was 1.04 and the relative viability (Sunitinib + Lapatinib; first compound 0.6325 µM) was 0.998. It also gave a relative viability (Sunitinib + Lapatinib; first compound 2 µM) of 1.02.

For NCI-H596, the relative viability (Sunitinib + Dasatinib; first compound 0.02 µM) was 0.599, the relative viability (Sunitinib + Dasatinib; first compound 0.06325 µM) was 0.731 and the relative viability (Sunitinib + Dasatinib; first compound 0.2 µM) was 0.709. It also gave a relative viability (Sunitinib + Dasatinib; first compound 0.6325 µM) of 0.709, a relative viability (Sunitinib + Dasatinib; first compound 2 µM) of 0.467 and a relative viability (Sunitinib + Pemetrexed; first compound 0.02 µM) of 0.535. For the same cell line, the relative viability (Sunitinib + Pemetrexed; first compound 0.06325 µM) was 0.465, the relative viability (Sunitinib + Pemetrexed; first compound 0.2 µM) was 0.507 and the relative viability (Sunitinib + Pemetrexed; first compound 0.6325 µM) was 0.582. It also gave a relative viability (Sunitinib + Pemetrexed; first compound 2 µM) of 0.486, a relative viability (Sunitinib + Crizotinib; first compound 0.02 µM) of 0.935 and a relative viability (Sunitinib + Crizotinib; first compound 0.06325 µM) of 0.957. The relative viability (Sunitinib + Crizotinib; first compound 0.2 µM) was 1.01, the relative viability (Sunitinib + Crizotinib; first compound 2 µM) was 0.81 and the relative viability (Sunitinib + Lapatinib; first compound 0.02 µM) was 0.987. The relative viability (Sunitinib + Lapatinib; first compound 0.06325 µM) was 1.14, the relative viability (Sunitinib + Lapatinib; first compound 0.2 µM) was 1.22 and the relative viability (Sunitinib + Lapatinib; first compound 0.6325 µM) was 1.19. It also gave a relative viability (Sunitinib + Lapatinib; first compound 2 µM) of 1.08.

Work on EMC-BAC-2 yielded a relative viability (Sunitinib + Dasatinib; first compound 0.02 µM) of 0.318, a relative viability (Sunitinib + Dasatinib; first compound 0.06325 µM) of 0.336 and a relative viability (Sunitinib + Dasatinib; first compound 0.2 µM) of 0.383. For the same cell line, the relative viability (Sunitinib + Dasatinib; first compound 0.6325 µM) was 0.344, the relative viability (Sunitinib + Dasatinib; first compound 2 µM) was 0.36 and the relative viability (Sunitinib + Pemetrexed; first compound 0.02 µM) was 0.427. The relative viability (Sunitinib + Pemetrexed; first compound 0.06325 µM) was 0.426, the relative viability (Sunitinib + Pemetrexed; first compound 0.2 µM) was 0.472 and the relative viability (Sunitinib + Pemetrexed; first compound 0.6325 µM) was 0.481. It also gave a relative viability (Sunitinib + Pemetrexed; first compound 2 µM) of 0.464, a relative viability (Sunitinib + Crizotinib; first compound 0.02 µM) of 0.743 and a relative viability (Sunitinib + Crizotinib; first compound 0.06325 µM) of 0.848. For the same cell line, the relative viability (Sunitinib + Crizotinib; first compound 0.2 µM) was 0.821, the relative viability (Sunitinib + Crizotinib; first compound 0.6325 µM) was 0.88 and the relative viability (Sunitinib + Crizotinib; first compound 2 µM) was 0.797. For the same cell line, the relative viability (Sunitinib + Lapatinib; first compound 0.02 µM) was 0.839, the relative viability (Sunitinib + Lapatinib; first compound 0.06325 µM) was 0.959 and the relative viability (Sunitinib + Lapatinib; first compound 0.2 µM) was 1.01. It also gave a relative viability (Sunitinib + Lapatinib; first compound 2 µM) of 0.891.

For NCI-H1792, the relative viability (Sunitinib + Dasatinib; first compound 0.02 µM) was 0.678, the relative viability (Sunitinib + Dasatinib; first compound 0.06325 µM) was 0.799 and the relative viability (Sunitinib + Dasatinib; first compound 0.2 µM) was 1.02. It also gave a relative viability (Sunitinib + Dasatinib; first compound 0.6325 µM) of 0.754, a relative viability (Sunitinib + Dasatinib; first compound 2 µM) of 0.74 and a relative viability (Sunitinib + Pemetrexed; first compound 0.02 µM) of 0.619. For the same cell line, the relative viability (Sunitinib + Pemetrexed; first compound 0.06325 µM) was 0.942, the relative viability (Sunitinib + Pemetrexed; first compound 0.2 µM) was 1.26 and the relative viability (Sunitinib + Pemetrexed; first compound 0.6325 µM) was 1.21. For the same cell line, the relative viability (Sunitinib + Pemetrexed; first compound 2 µM) was 0.775, the relative viability (Sunitinib + Crizotinib; first compound 0.02 µM) was 0.821 and the relative viability (Sunitinib + Crizotinib; first compound 0.06325 µM) was 1.03. The relative viability (Sunitinib + Crizotinib; first compound 0.2 µM) was 1.22, the relative viability (Sunitinib + Crizotinib; first compound 0.6325 µM) was 0.979 and the relative viability (Sunitinib + Crizotinib; first compound 2 µM) was 1.01. The relative viability (Sunitinib + Lapatinib; first compound 0.02 µM) was 0.885, the relative viability (Sunitinib + Lapatinib; first compound 0.06325 µM) was 0.952 and the relative viability (Sunitinib + Lapatinib; first compound 0.2 µM) was 1.07. It also gave a relative viability (Sunitinib + Lapatinib; first compound 0.6325 µM) of 0.809 and a relative viability (Sunitinib + Lapatinib; first compound 2 µM) of 0.923.

For BEN, the relative viability (Sunitinib + Dasatinib; first compound 0.02 µM) was 0.31, the relative viability (Sunitinib + Dasatinib; first compound 0.06325 µM) was 0.301 and the relative viability (Sunitinib + Dasatinib; first compound 0.2 µM) was 0.277. It also gave a relative viability (Sunitinib + Dasatinib; first compound 0.6325 µM) of 0.38, a relative viability (Sunitinib + Dasatinib; first compound 2 µM) of 0.309 and a relative viability (Sunitinib + Pemetrexed; first compound 0.02 µM) of 0.812. The relative viability (Sunitinib + Pemetrexed; first compound 0.06325 µM) was 0.862, the relative viability (Sunitinib + Pemetrexed; first compound 0.6325 µM) was 0.742 and the relative viability (Sunitinib + Pemetrexed; first compound 2 µM) was 0.74. It also gave a relative viability (Sunitinib + Crizotinib; first compound 0.02 µM) of 0.835, a relative viability (Sunitinib + Crizotinib; first compound 0.06325 µM) of 0.956 and a relative viability (Sunitinib + Crizotinib; first compound 0.2 µM) of 1.18. The relative viability (Sunitinib + Crizotinib; first compound 0.6325 µM) was 0.93, the relative viability (Sunitinib + Crizotinib; first compound 2 µM) was 0.955 and the relative viability (Sunitinib + Lapatinib; first compound 0.02 µM) was 0.651. It also gave a relative viability (Sunitinib + Lapatinib; first compound 0.06325 µM) of 0.754, a relative viability (Sunitinib + Lapatinib; first compound 0.2 µM) of 0.675 and a relative viability (Sunitinib + Lapatinib; first compound 0.6325 µM) of 0.673. For the same cell line, the relative viability (Sunitinib + Lapatinib; first compound 2 µM) was 0.618.

H3255 showed a relative viability (Sunitinib + Dasatinib; first compound 0.02 µM) of 0.455, a relative viability (Sunitinib + Dasatinib; first compound 0.06325 µM) of 0.379 and a relative viability (Sunitinib + Dasatinib; first compound 0.2 µM) of 0.418. The relative viability (Sunitinib + Dasatinib; first compound 0.6325 µM) was 0.336, the relative viability (Sunitinib + Dasatinib; first compound 2 µM) was 0.381 and the relative viability (Sunitinib + Pemetrexed; first compound 0.02 µM) was 0.557. It also gave a relative viability (Sunitinib + Pemetrexed; first compound 0.06325 µM) of 0.558, a relative viability (Sunitinib + Pemetrexed; first compound 0.2 µM) of 0.567 and a relative viability (Sunitinib + Pemetrexed; first compound 0.6325 µM) of 0.552. It also gave a relative viability (Sunitinib + Pemetrexed; first compound 2 µM) of 0.612, a relative viability (Sunitinib + Crizotinib; first compound 0.02 µM) of 0.836 and a relative viability (Sunitinib + Crizotinib; first compound 0.06325 µM) of 0.831. It also gave a relative viability (Sunitinib + Crizotinib; first compound 0.2 µM) of 0.876, a relative viability (Sunitinib + Crizotinib; first compound 0.6325 µM) of 1.05 and a relative viability (Sunitinib + Crizotinib; first compound 2 µM) of 0.917. It also gave a relative viability (Sunitinib + Lapatinib; first compound 0.02 µM) of 0.231, a relative viability (Sunitinib + Lapatinib; first compound 0.06325 µM) of 0.313 and a relative viability (Sunitinib + Lapatinib; first compound 0.2 µM) of 0.227. For the same cell line, the relative viability (Sunitinib + Lapatinib; first compound 0.6325 µM) was 0.259 and the relative viability (Sunitinib + Lapatinib; first compound 2 µM) was 0.236.

For NCI-H661, the relative viability (Sunitinib + Dasatinib; first compound 0.02 µM) was 0.923, the relative viability (Sunitinib + Dasatinib; first compound 0.06325 µM) was 1.12 and the relative viability (Sunitinib + Dasatinib; first compound 0.2 µM) was 1.06. For the same cell line, the relative viability (Sunitinib + Dasatinib; first compound 0.6325 µM) was 1.07, the relative viability (Sunitinib + Dasatinib; first compound 2 µM) was 1.1 and the relative viability (Sunitinib + Pemetrexed; first compound 0.02 µM) was 0.882. For the same cell line, the relative viability (Sunitinib + Pemetrexed; first compound 0.06325 µM) was 0.958, the relative viability (Sunitinib + Pemetrexed; first compound 0.2 µM) was 0.915 and the relative viability (Sunitinib + Pemetrexed; first compound 0.6325 µM) was 0.978. The relative viability (Sunitinib + Pemetrexed; first compound 2 µM) was 0.943, the relative viability (Sunitinib + Crizotinib; first compound 0.02 µM) was 1.09 and the relative viability (Sunitinib + Crizotinib; first compound 0.06325 µM) was 0.987. The relative viability (Sunitinib + Crizotinib; first compound 0.2 µM) was 1, the relative viability (Sunitinib + Crizotinib; first compound 0.6325 µM) was 0.978 and the relative viability (Sunitinib + Crizotinib; first compound 2 µM) was 1.17. The relative viability (Sunitinib + Lapatinib; first compound 0.02 µM) was 0.433, the relative viability (Sunitinib + Lapatinib; first compound 0.06325 µM) was 0.453 and the relative viability (Sunitinib + Lapatinib; first compound 0.2 µM) was 0.527. For the same cell line, the relative viability (Sunitinib + Lapatinib; first compound 0.6325 µM) was 0.582 and the relative viability (Sunitinib + Lapatinib; first compound 2 µM) was 0.448.
